Source: PMC3627359 (Journal of medicinal chemistry, 2013)
Like-named read-outs stand apart in the source and are kept apart here.

Assays:
[1] = system: PC12 cells expressing G93A SOD1; assay: Mutant SOD1-induced cytotoxicity protection assay; format: cell-based
[2] = In vitro microsomal stability; format: in vitro ADME; conditions: Mouse microsomes, data from Apredica
[3] = In vitro Caco-2 permeability; format: in vitro ADME; conditions: human
[4] = In vitro microsomal stability; format: in vitro ADME; conditions: Human microsomes, data from Apredica
[5] = cited from earlier work
cortical neurons = assay: Primary cortical neuron protection assay; format: cell-based

NADPH-absent CLint (microsomal intrinsic clearance) [2] [mL/min/kg]	NADPH-dependent CLint (microsomal intrinsic clearance) [2] [mL/min/kg]	NADPH-absent CLint (microsomal intrinsic clearance) [4] [mL/min/kg]	NADPH-dependent CLint (microsomal intrinsic clearance) [4] [mL/min/kg]	SMILES	further results
				CN(Cc1cc(=O)n(Cc2ccccc2)[nH]1)c1cc(Cl)cc(Cl)c1 [Compound 29, 2-Benzyl-5-(((3,5-dichlorophenyl)(methyl)amino)methyl)-1H-pyrazol-3(2H)-one]	Activity in the PC12 assay [1]: comparable in activity to parent compound 3
21	64	13	25	O=c1cc(COc2cc(Cl)cc(Cl)c2)[nH][nH]1 [Compound 1]	efflux ratio [3]: 0.4; AUC/dose ([5]; i.v. administration): 184 ng*h/mL/dose; PK half-life ([5]; in vivo PK): 3.6 h; AUC/dose ([5]; p.o. administration): 50 ng*h/mL/dose; Oral bioavailability ([5]; p.o. vs i.v.): 27%
				O=c1[nH][nH]c2c1CN(c1cc(Cl)cc(Cl)c1)CC2 [Compound 27, 5-(3,5-Dichlorophenyl)-4,5,6,7-tetrahydro-1H-pyrazolo[4,3-c]pyridin-3(2H)-one]	Activity with cortical neurons (cortical neurons): not active
				CN(Cc1cc(=O)n(C)[nH]1)c1cc(Cl)cc(Cl)c1 [Compound 30, 5-(((3,5-Dichlorophenyl)(methyl)amino)methyl)-2-methyl-1H-pyrazol-3(2H)-one]	Activity in the PC12 assay [1]: comparable in activity to parent compound 3
23	78	0	24	O=c1cc(CNc2cc(Cl)cc(Cl)c2)[nH][nH]1 [Compound 2, 5-((3,5-Dichlorophenylamino)methyl)-1H-pyrazol-3(2H)-one]	
0	93	0	0	CN(Cc1cc(=O)[nH][nH]1)c1cc(Cl)cc(Cl)c1 [Compound 3, 5-(((3,5-Dichlorophenyl)(methyl)amino)methyl)-1H-pyrazol-3(2H)-one]	Neuronal activity recovered (cortical neurons; 10 μM concentration): 100%
				CN(CCCc1cc(=O)[nH][nH]1)c1cc(Cl)cc(Cl)c1 [Compound 24, 5-(3-((3,5-Dichlorophenyl)(methyl)amino)propyl)-1H-pyrazol-3(2H)-one]	Activity with cortical neurons (cortical neurons): not active
